Measurements taken from the supplement of paper PMC7394473.

Assays:
Settings in all cases: 72 h
[1] = system: U2OS; test: fractional viability (live cells / total cells); higher = less cell death
Procedure: (§1)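 U2OS::Nuc-mKate2 cells seeded in 96-well plates and treated with eight- to ten-point half-log or log dilutions of drug in the presence of 50 nM SYTOX Green. Live (mKate2+) and dead (SYTOX+) cells were counted by IncuCyte STACK live-cell microscopy at 72 h; biological triplicates. GR is the normalised growth-rate inhibition value (Hafner 2016; 1 = untreated growth, <0 = population shrinking). FV is live/(live+dead) cells, not normalised.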

[2] = system: U2OS; test: normalized growth rate inhibition value (GR) relative to untreated cells (GR value (dimensionless, 1 = untreated growth)); higher = less growth inhibition
Procedure: as §1

[3] = system: U2OS; test: GR50 (concentration giving GR = 0.5)
Procedure: (§2)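 U2OS cells treated with full dose titrations of drug; live and dead cells counted by STACK microscopy (mKate2 nuclei, SYTOX Green) at 72 h, biological triplicates. GR and FV dose responses were fitted with 4-parameter logistic models (GR lower bound -1). GRADE (0-100) is the rescaled angle of a linear fit of FV versus GR at doses with GR >= 0, giving the percentage of the response due to cell death.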

[4] = system: U2OS; test: GRmin (fitted minimal GR value at highest effect) (GR value (dimensionless)); higher = less efficacious
Procedure: as §2

[5] = system: U2OS; test: drug GRADE (percent of response due to cell death) (% (0-100)); higher = more death-driven response
Procedure: as §2

SMILES | fractional viability ([1]; 0.00100578 µM) | fractional viability ([1]; 0.00317827 µM) | fractional viability ([1]; 0.0100433 µM) | fractional viability ([1]; 0.0317369 µM) | fractional viability ([1]; 0.100289 µM) | fractional viability ([1]; 0.316912 µM) | fractional viability ([1]; 1.00144 µM) | fractional viability ([1]; 3.16456 µM) | fractional viability ([1]; 10 µM) | normalized growth rate inhibition value ([2]; 0.00100578 µM) | normalized growth rate inhibition value ([2]; 0.00317827 µM) | normalized growth rate inhibition value ([2]; 0.0100433 µM) | normalized growth rate inhibition value ([2]; 0.0317369 µM) | normalized growth rate inhibition value ([2]; 0.100289 µM) | normalized growth rate inhibition value ([2]; 0.316912 µM) | normalized growth rate inhibition value ([2]; 1.00144 µM) | normalized growth rate inhibition value ([2]; 3.16456 µM) | normalized growth rate inhibition value ([2]; 10 µM) | GR50 [3] | fractional viability ([1]; 0.01 µM) | fractional viability ([1]; 0.0316 µM) | fractional viability ([1]; 0.1 µM) | fractional viability ([1]; 0.316 µM) | fractional viability ([1]; 1 µM) | fractional viability ([1]; 3.16 µM) | fractional viability ([1]; 31.6 µM) | normalized growth rate inhibition value ([2]; 0.01 µM) | normalized growth rate inhibition value ([2]; 0.0316 µM) | normalized growth rate inhibition value ([2]; 0.1 µM) | normalized growth rate inhibition value ([2]; 0.316 µM) | normalized growth rate inhibition value ([2]; 1 µM) | normalized growth rate inhibition value ([2]; 3.16 µM) | normalized growth rate inhibition value ([2]; 31.6 µM) | GRmin [4] | drug GRADE [5]
CCc1cncnc1N1CCN(Cc2nc3ccc(C(F)(F)F)cc3[nH]2)CC1 | 0.988 | 0.988 | 0.988 | 0.988 | 0.988 | 0.986 | 0.992 | 0.989 | 0.98 | 1.06 | 0.948 | 1.04 | 1.02 | 0.896 | 1 | 0.842 | 0.943 | 0.734 |  |  |  |  |  |  |  |  |  |  |  |  |  |  |  |  | 
Cc1nn(C)c(COc2ccc(N3CCN(S(=O)(=O)N(C)C)CC3)cc2)c1-c1cccc2c(CCCOc3cccc4ccccc34)c(C(=O)O)n(CCN3CCOCC3)c12 | 0.991 | 0.989 | 0.987 | 0.991 | 0.99 | 0.987 | 0.978 | 0.96 | 0.852 | 0.982 | 0.925 | 0.967 | 0.917 | 0.934 | 0.942 | 0.899 | 0.919 | 0.718 |  |  |  |  |  |  |  |  |  |  |  |  |  |  |  |  | 
COC1CCN(C(=O)c2cc(Cc3n[nH]c(=O)c4ccccc34)ccc2F)CC1 [AZD2461] |  |  |  |  |  |  |  |  | 0.959 |  |  |  |  |  |  |  |  | 0.682 | 21.7 µM | 0.974 | 0.973 | 0.978 | 0.975 | 0.972 | 0.97 | 0.919 | 1.01 | 0.882 | 0.946 | 0.923 | 0.93 | 0.849 | 0.407 | 0.0439 | 13.6
Cc1nc(NC(=O)N2CCC[C@H]2C(N)=O)sc1-c1ccnc(C(C)(C)C(F)(F)F)c1 [Alpelisib] | 0.986 | 0.987 | 0.987 | 0.985 | 0.982 | 0.98 | 0.971 | 0.965 | 0.938 | 0.96 | 0.922 | 0.922 | 0.903 | 0.836 | 0.752 | 0.794 | 0.79 | 0.693 |  |  |  |  |  |  |  |  |  |  |  |  |  |  |  | 0.695 | 9
C[C@H]1[C@H](OC(=O)CCC(=O)O)O[C@@H]2O[C@@]3(C)CC[C@H]4[C@H](C)CC[C@@H]1[C@@]24OO3 [Artesunate] |  |  |  |  |  |  |  |  | 0.941 |  |  |  |  |  |  |  |  | 0.63 | 14.7 µM | 0.98 | 0.974 | 0.976 | 0.972 | 0.977 | 0.971 | 0.779 | 1.02 | 0.827 | 0.944 | 0.928 | 0.89 | 0.814 | 0.178 |  | 35.4
CNC(=O)c1ccccc1Sc1ccc2c(/C=C/c3ccccn3)n[nH]c2c1 [Axitinib] |  |  |  |  |  |  |  |  | 0.949 |  |  |  |  |  |  |  |  | 0.733 |  | 0.977 | 0.978 | 0.97 | 0.972 | 0.956 | 0.788 | 0.91 | 0.956 | 0.956 | 0.887 | 0.994 | 0.822 | 0.223 | 0.643 | 0.534 | 32.1
Cc1c(N)nc([C@H](CC(N)=O)NC[C@H](N)C(N)=O)nc1C(=O)N[C@H](C(=O)N[C@H](C)[C@@H](O)[C@H](C)C(=O)N[C@H](C(=O)NCCc1nc(-c2nc(C(=O)NCCC[S+](C)C)cs2)cs1)[C@@H](C)O)[C@@H](OC1OC(CO)C(O)C(O)C1OC1OC(CO)C(O)C(OC(N)=O)C1O)c1cnc[nH]1 (some centres not stated) [Bleomycin] | 0.989 | 0.989 | 0.99 | 0.991 | 0.987 | 0.982 | 0.972 | 0.968 | 0.947 | 1.12 | 0.986 | 1.11 | 1.03 | 0.88 | 0.888 | 0.552 | 0.195 | 0.0892 | 1.15 µM |  |  |  |  |  |  |  |  |  |  |  |  |  |  | 0.0459 | 6.06
